Where a name gives a salt, the structure may show the parent alone.

Test [1] concerns HUVEC sprouting. As to the kind of experiment: Primary angiogenesis screen, HUVEC spheroid evaluation (EC sprouting). The format is cell-based, human. The settings on record: HUVEC spheroids in collagen gel, VEGF-supplemented, 24 hours. As to the method: A test substance was selected for evaluation in angiogenesis screens. The test substance was synthesized or obtained as appropriate and stored at −20° C. in DMSO. Prior to use, the test substance was thawed and 5 mM of the substance was diluted to a 10 fold concentrated working solution (100 μM) in endothelial cell basal medium. The basal medium fraction was supplemented with 25 ng VEGF/100 μl for the stimulation of HUVEC sprouting.
The screening procedures were modified versions of those described by Korff and Augustin (J Cell Sci 112: 3249-58, 1999). By way of summary, spheroids were prepared by pipetting 400 human umbilical vein endothelial cells (HUVEC) into each well of nonadhesive 96-well plates. Prior to use the HUVEC were cultured according to the supplier's instructions (PromoCell, Heidelberg, Germany). The cells were allowed to aggregate overnight into spheroids (Korff and Augustin: J Cell Biol 143: 1341-52, 1998). After aggregation, 48 HUVEC spheriods were harvested. Each harvested spheroid was seeded in 900 μl of methocel-collagen solution and pipetted into an individual well of a 24-well plate to allow collagen gel polymerization.
(§1) Thirty (30) minutes after seeding, the test substance was added. The working dilution (10 fold concentration) was utilized, 100 μl was pipetted on top of the polymerized collagen gel in each well. The plates were then incubated at 37° C. for 24 hours. At the end of the incubation period the plates were fixed by adding 1 ml paraformaldehyde (10%) to each well.
The HUVEC spheriods were microscopically assayed for endothelial cell (EC) sprouting intensity. The degree of EC sprouting was classified into one of four groups by comparing the degree of sprouting to that observed in VEGF control cells. […] For exemplary results, see FIG. 1.

In test [2] the test system is HUVEC sprouting. As to the kind of experiment: 3D angiogenesis assay of stimulators (HUVEC sprouting alone, with VEGF, with PTK787/ZK222584). It counts as cell-based, human. Conditions: for HUVEC sprouting, compounds alone, compared to VEGF-induced sprouting: without addition of VEGF, 24 hours, basal sprouting subtracted, FIG. 22. The protocol: The HUVEC monolayer was treated for 6 hours with the compounds then the induced transcriptional changes, when compared to untreated HUVEC, were determined. The compounds were tested according to their ability to induce sprouting without addition of VEGF, in combination with VEGF and together with the VEGFR-2 inhibitor PTK787/ZK222584 (1 μM).

For test [3], the system named is angiogenesis induced by vascular permeability factor/vascular endothelial growth factor. Conditions: Basu S et al., Nat Med 2001; cited from earlier work.
The subject of test [4] is NHDF (human dermal fibroblasts) scattering. The test can be described thus: NHDF spheroid evaluation (fibroblast scattering). It counts as cell-based. The settings on record: NHDF spheroids in collagen gel, no supplements, 24 hours. As to the method:
Where the test compound was classified as an inhibitor or stimulator, a second screening process was performed. In the second screen, the test substance was thawed and 5 mM of the substance was diluted to a 10 fold concentrated working solution (100 μM) in endothelial cell basal medium. No supplements were used in the basal medium.
Instead of HUVEC, spheroids were prepared by pipetting 400 human dermal fibroblasts (NHDF) into each well of nonadhesive 96-well plates. Prior to use the NHDF were cultured according to the supplier's instructions (PromoCell, Heidelberg, Germany). The cells were allowed to aggregate overnight into spheroids (Korff and Augustin: J Cell Biol 143: 1341-52, 1998). After aggregation, 48 NHDF spheroids were harvested. Each of the harvested spheroids was seeded in 900 μl of methocel-collagen solution and pipetted into an individual well of a 24-well plate to allow collagen gel polymerization.
as §1
The NHDF spheroids were microscopically assayed for fibroblast scattering intensity. […] For exemplary results, see FIG. 1.

In the next test the test system is HUVEC. The test can be described thus: Cell proliferation assay (crystal violet), HUVEC. Conditions: Homo sapiens, 72 hours, OD 595 nm. It counts as cell-based. As to the method: In order to further confirm the surprising results described above, the compounds were tested in a cell proliferation assay. Crystal violet was used to measure cell proliferation; this basic dye stains cell nuclei and provides a sensitive, rapid evaluation. Light absorption of unstained or destained cell layers is negligible, making it possible to perform cell number measurements in wells.
Six cell types (HUVEC, HDMEC, SMC, Fibroblast, A375 and RENCA) were plated and treated with the compounds in a log2 titration for 72 hours. The optimal cell number for each cell type was determined and optical density (OD) was measured at 595 nm. Each data point was measured in quadruplicate. The assay was stopped after 72 hours and subsequently analyzed.
The OD-value of the plated cells before addition of the compounds was subtracted from all OD-values obtained after treatment. The percentage in relation to control proliferation was then calculated. Negative values therefore represent a count of fewer cells than were plated. The IC50 is given below in Table 1. Results are shown as a percentage in relation to the control proliferation. The IC50 were calculated using GraphPad Prism software (GraphPad Software, Inc.). Perhexiline results are depicted graphically in FIGS. 4A-4C and Erythromycin results in FIGS. 5A-5C. […]

In a further test the test system is HDMEC. The test can be described thus: Cell proliferation assay (crystal violet), HDMEC. The settings on record: 72 hours, OD 595 nm. The format is cell-based. The protocol:
(§2) In order to further confirm the surprising results described above, the compounds were tested in a cell proliferation assay. Crystal violet was used to measure cell proliferation; this basic dye stains cell nuclei and provides a sensitive, rapid evaluation. Light absorption of unstained or destained cell layers is negligible, making it possible to perform cell number measurements in wells. Six cell types (HUVEC, HDMEC, SMC, Fibroblast, A375 and RENCA) were plated and treated with the compounds in a log2 titration for 72 hours. The optimal cell number for each cell type was determined and optical density (OD) was measured at 595 nm. Each data point was measured in quadruplicate. The assay was stopped after 72 hours and subsequently analyzed. The OD-value of the plated cells before addition of the compounds was subtracted from all OD-values obtained after treatment. The percentage in relation to control proliferation was then calculated. Negative values therefore represent a count of fewer cells than were plated. The IC50 is given below in Table 1. Results are shown as a percentage in relation to the control proliferation. The IC50 were calculated using GraphPad Prism software (GraphPad Software, Inc.). Perhexiline results are depicted graphically in FIGS. 4A-4C and Erythromycin results in FIGS. 5A-5C.

The next test concerns SMC. The test can be described thus: Cell proliferation assay (crystal violet), SMC. The format is cell-based. The settings on record: 72 hours, OD 595 nm. The protocol:
as §2

For another test, the system named is Fibroblast. The test can be described thus: Cell proliferation assay (crystal violet), Fibroblast. Conditions: 72 hours, OD 595 nm. The format is cell-based. The protocol: as §2
The subject of a further test is A375. As to the kind of experiment: Cell proliferation assay (crystal violet), A375. It counts as cell-based. The settings on record: Homo sapiens, A-375, 72 hours, OD 595 nm. The protocol:
as §2

In another test the test system is RENCA. As to the kind of experiment: Cell proliferation assay (crystal violet), RENCA. The format is cell-based. Conditions: 72 hours, OD 595 nm. As to the method: as §2
A further test relates to B16F10 cells. The test can be described thus: Cell viability of B16F10 cells. The format is cell-based. The settings on record: Mus musculus, B16-F10; after 24 and 48 hours incubation. The protocol:
A cell viability assay based on cellular reduction of resazurin to the fluorescent product resorufin was performed. Viable cells can metabolize and reduce the dye, whereas dead cells rapidly lose the capacity to do so, making the increase in fluorescence directly proportional to the number of viable cells. The tested compounds were added in a log2 titration and viable cells were analyzed 24 hours after treatment. The fluorescence was determined at an excitation wavelength of 560 nm and an emission wavelength of 590 nm. The percentage of viable cells in relation to the untreated control proliferation was calculated. […] Perhexiline results are depicted graphically in FIGS. 6A-6C and Erythromycin results in FIGS. 7A-7C.
Through the two aforementioned assays it was determined that RENCA cells are more sensitive when treated with Perhexiline than the other cell types in the proliferation assay and in the viability assay. Therefore, the B16F10 cells were subsequently tested. The B16F10 tumor model, like the RENCA model, is an orthotopic tumor model.

In test [5] the test system is tumor size and vessel density. The test can be described thus: Further studies with other CPT-1 inhibitors. The settings on record: CPT-1 inhibitors at 10 and 100 μm; FIGS. 37A-40.
The subject of test [6] is HUVEC sprouting. As to the kind of experiment: Spheroid-based 3D angiogenesis assay (IC50, alone or with VEGFR-2 inhibitor). It counts as cell-based, human. Conditions: determined in the spheroid-based 3D assay (FIG. 10); read-out: IC50 of the VEGFR-2 inhibitors. From the text:
Therefore, the assay was applied to test compounds alone or in combination with a VEGFR-2 inhibitor to address changes in IC50. […] The VEGFR-2 inhibitor was applied at a concentration close to the IC50.

The subject of test [7] is Alexander cells (PLC/PRF/5) subcutaneous tumor. The test can be described thus: Hepato-Cellular Carcinoma Model (HCC) in vivo study, subcutaneous Alexander cells. Also on record: species or system NMRI nu/nu mice. The settings on record: subcutaneous Alexander cell tumors in mice, about 21 days of treatment; FIGS. 28-30.
Procedure: Monolayers of Alexander cells can be grown in 85% Dulbecco's Modified Eagle's Medium (DMEM), 15% Fetal Bovine Serum (FBS), 4 mM L-glutamine, 100 units penicillinG/ml, and 100 μg of streptomycin-sulfate/ml. The cells can be cultured in a humidified atmosphere of 90% air and 10% carbon dioxide at 37° C. Media may preferably be changed every 4 days.
Six to eight week old female NMRI^−nu/nu mice could be utilized. The Alexander cells can be implanted in the left flank region of the mice, for example, by injecting 4×10^7 cells in 0.2 ml aliquots into the subcutaneous space of the left flank using a 29 G needle syringe. After inoculation the appearing subcutaneous tumours can be measured by callipering and multiplying the distances of all three dimensions.
Therapy can be initiated after the tumor size has reached a volume of approximately 100 mm^3 (day 1 of the study), and continue for about 21 days.
As shown, Group 1 would serve as control, where the animals would receive no further treatment after injection of Alexander cells.
After approximately 21 days of treatment, mice could be sacrificed and tumors collected and optionally stored appropriately at −80° C. For histological examination of the tumor vasculature, cryosections of the tissues (thickness of 5-10 μm) can be taken. For visualization of the blood vessels, immunohistochemical staining for CD 31 (PECAM-1) can be performed, and vessels counted microscopically using a defined magnification (×200).

Turning to `Clc1ccc(CSC(Cn2ccnc2)c2ccc(Cl)cc2Cl)cc1` (racemic) [Sulconazole, (±)-1-[2.4-dichloro-b-[(p-chlorobenzyl)-thio]-phenethyl]imidazole mononitrate], in the test with HUVEC sprouting [1], the “EC sprouting intensity compared with VEGF control” value is recorded as “angiogenesis stimulators”.

Turning to `CC(C)C[C@H]1C(=O)N2CCC[C@H]2[C@]2(O)O[C@](NC(=O)[C@@H]3C=C4c5cccc6[nH]c(Br)c(c56)C[C@H]4N(C)C3)(C(C)C)C(=O)N12` [Bromocriptine, Bromocriptine mesylate], the “EC sprouting intensity compared with VEGF control” value in the test on HUVEC sprouting [1] is “angiogenesis stimulator”. Also, the “HUVEC sprouting, compounds alone, compared to VEGF-induced sprouting” value with HUVEC sprouting [2] is on record as “stimulated sprouting in excess of the VEGF-induced sprouting”. Besides, the “effect on angiogenesis (literature)” value in [3] was “prevent angiogenesis”.

Regarding `C#C[C@]1(O)CC[C@H]2[C@@H]3CCC4=Cc5oncc5C[C@]4(C)[C@H]3CC[C@@]21C` [Danazol], the “EC sprouting intensity compared with VEGF control” value in the test with HUVEC sprouting [1] is on record as “increased sprouting stimulation”. In addition, in [4], the “fibroblast scattering (invasion) effect” value was “no fibroblast invasion effect”.

On to `NCCc1ccc(O)c(O)c1` [Dopamine], for which, in test [3], the “effect on angiogenesis (literature)” value is listed as “prevent angiogenesis”.

For `Clc1ccc(COC(Cn2ccnc2)c2ccc(Cl)cc2Cl)cc1.O=[N+]([O-])O` (centres unmarked) [Econazole, 1-[2-{(4-chloro-phenyl)methoxy}-2-(2,4-dichlorophenyl)ethyl]-1H-imidazole mononitrate], in the test on HUVEC sprouting [1], the “EC sprouting intensity compared with VEGF control” value is “angiogenesis stimulators”.

A word on the IC50: it is the concentration needed to halve the response being measured. For `CC[C@H]1OC(=O)[C@H](C)[C@@H](O[C@H]2C[C@@](C)(OC)[C@@H](O)[C@H](C)O2)[C@H](C)[C@@H](O[C@@H]2O[C@H](C)C[C@H](N(C)C)[C@H]2O)[C@](C)(O)C[C@@H](C)C(=O)[C@H](C)[C@@H](O)[C@]1(C)O` [Erythromycin], the “EC sprouting intensity compared with VEGF control” value in the test on HUVEC sprouting [1] is on record as “sprouting inhibition”. Besides, the “fibroblast scattering (invasion) effect” value in test [4] is recorded as “no fibroblast invasion effect”. In addition, the IC50 in the test on HUVEC is more than 100 µM; in the test with HDMEC, approximately 100 µM; in the test with SMC, more than 100 µM; with Fibroblast, more than 100 µM; in the test with A375 it was more than 100 µM; in the test with RENCA, 56 µM. For the same molecule, inhibition in the test with B16F10 cells was half-maximal at 10 µM (IC50).

Take `CCc1cc(Cl)c(OC)c(C(=O)NC[C@@H]2CCCN2CC)c1O` [Eticlopride]: the “HUVEC sprouting, compounds alone, compared to VEGF-induced sprouting” value in the test on HUVEC sprouting [2] is given as “stimulated sprouting in excess of the VEGF-induced sprouting”. For the same molecule, the “effect on angiogenesis (literature)” value in test [3] is recorded as “not effect on angiogenesis”.

On to `CCOC(=O)[C@@]1(CCCCCCOc2ccc(Cl)cc2)CO1` [Etomoxir], for which the “effects on tumor size and vessel density (as seen with Perhexiline)” value (“effects on tumor size and vessel density” for short) in test [5] is “not seen”.

For `CCN(CC)C(=O)N[C@H]1C=C2c3cccc4[nH]cc(c34)C[C@H]2N(C)C1` [Lisuride (S)(−)], the “EC sprouting intensity compared with VEGF control” value with HUVEC sprouting [1] is given as “increased sprouting stimulation”. Also, the “fibroblast scattering (invasion) effect” value in test [4] is reported as “no fibroblast invasion effect”.

For the molecule `CC(C)(COP(=O)(O)OP(=O)(O)OC[C@H]1O[C@@H](n2cnc3c(N)ncnc32)[C@H](O)[C@@H]1OP(=O)(O)O)[C@@H](O)C(=O)NCCC(=O)NCCSC(=O)CC(=O)O` [Malonyl-CoA], the “effects on tumor size and vessel density” value in test [5] is given as “not seen”.

For `Clc1ccc(COC(Cn2ccnc2)c2ccc(Cl)cc2Cl)c(Cl)c1` (centres unmarked) [Miconazole], in the test on HUVEC sprouting [1], the “EC sprouting intensity compared with VEGF control” value is given as “increased sprouting stimulation”. The “fibroblast scattering (invasion) effect” value in test [4] is listed as “no fibroblast invasion effect”.

As to `Clc1ccc(Nc2nnc(Cc3ccncc3)c3ccccc23)cc1` [PTK787/ZK222584], the IC50 in the test with HUVEC sprouting [6] was determined as 0.1 µM. Moreover, the “tumor growth compared to control” value in [7] was “reduced”. Also, the VEGF-induced sprouting entry in the test with HUVEC sprouting [2] (at a concentration of 1 μM) is recorded as “completely prevents VEGF-induced sprouting”.

Consider `COc1ccc(CN2CCNCC2)c(OC)c1OC` [Trimetazidine dihydrochloride], for which the “effects on tumor size and vessel density” value in test [5] is reported as “not seen”.
